# US6627210B2, “Compositions containing α-2-adrenergic agonist components” (Allergan, Inc., priority 2000, dated 2003)
# Where two headings read alike, the source gives them in different places. Marks after values point to notes of the source that are not given here.
# Legend:
# [1] = for Solubility of Brimonidine tartrate: 0% CMC
# Description: The pH-solubility profiles of Brimonidine tartrate in compositions (solutions) containing SECs and oxy-chloro components were determined. Particularly, the effects of sodium carboxymethylcellulose (CMC), an SEC, on the solubility of Brimonidine tartrate at various pH conditions were determined. The various concentrations of CMC tested with Brimonidine tartrate were 0%, 0.056%, 0.17%, 0.5%, 1.5% (w/v), Table III.
# The samples tested also contained isotonic components, buffer components, and stabilized chlorine dioxide (Purite™), Table III. Sodium carboxymethyl-cellulose, sodium chloride, potassium chloride, calcium chloride dihydrate, and magnesium chloride hexahydrate were USP grade. Boric acid and sodium borate decahydrate were NF grade.
# Each sample (1 through 5) was subjected to a range of pH's from about 7 to about 10. The vials containing the sample solutions were placed on a laboratory rotator and left for equilibration for fifteen days at room temperature (˜21° C.). The sample solutions were filtered using a 25 mm diameter polysulfone cellulose acetate syringe type filter with 0.45 μm pore size. The filtered solutions were assayed for Brimonidine.
# Conventional HPLC and detection techniques were used to detect and determine the concentrations of soluble Brimonidine tartrate. […] The solubility is plotted against pH for each CMC concentration. The experimental data points were fitted to a modified Henderson-Hasselbalch equation using a nonlinear least squares routine (Deltagraph version 4.0 DeltaPoint, Inc.), FIG. 1.
# [2] = composition including chlorite, equilibrated ten days
# Description: Brimonidine tartrate is added to a test tube containing a composition including chlorite. The test tube was allowed to equilibrate for ten days. Samples obtained from the test tube is analyzed.
# [3] = for Solubility: 23° C., stirred 2 days
# Description: Table 1. It will be understood that concentrations of adrenergic agonists other than 0.5% may be used, so long as they have therapeutic activity. Likewise, the temperature may be varied, for example, solubility curves may be performed at 37° C. (98.6° F.). The formulation vehicle was prepared by first dissolving polyvinyl alcohol (PVA) in water. The PVA was added to approximately ⅓ of the required total amount of purified water with constant stirring. The slurry was stirred for 20-30 minutes and then heated to 80-95° C. with constant stirring. The mixture was removed from the heat source within 1 hour after having reached the temperature of 80-90° C. and stirred for an additional 10 minutes to ensure homogeneity (Part I). The other ingredients of the Ophthalmic Solution, except for Brimonidine tartrate, were dissolved in a separate container with an additional ⅓ of the required total amount of purified water (Part II). The PVA mixture (Part I) was then quantitatively transferred to Part II using several rinse volumes of purified water. The solution was adjusted to final volume with purified water without pH adjustment.
# Brimonidine tartrate was weighed and transferred to a 10 mL test tube containing 5 mL of the formulation vehicle described above. The pH of each sample was then adjusted to a desired value using dilute sodium hydroxide and/or dilute hydrochloric acid. The samples were placed in a rack on a stir plate and stirred at high speed to achieve uniform mixing for 2 days; a partition was placed between the rack and the stir plate to prevent any heat diffusion from the stir plate to the samples.
# At the end of two days of stirring, the pH value of each sample was measured, and then approximately 1 mL of each sample was placed in a micro centrifuge tube (polypropylene) and centrifuged at 4,000 rpm for 10 minutes. The supernatant was filtered through a 1 μm filter unit (Whatman, 13 mm, PTFE). The first 3-4 drops of the filtrate were discarded; the rest of the filtrate was received and diluted quantitatively with HPLC mobile phase. The dilute sample was then injected directly on the HPLC column (Dupont Zorbax, 250 mm×4.6 mm, 5 μm) for Brimonidine tartrate assay in order to quantify the amount of Brimonidine tartrate. A control of 10.05% Brimonidine tartrate was prepared in the formulation vehicle at pH 6.3-6.5 and assayed before (untreated) and after (treated) centrifugation and filtration. This was done to evaluate the potential loss of Brimonidine tartrate in these two steps of the sample preparation. To ensure reproducibility, the study was repeated on consecutive days.
substance,measurement,setting,value
tartrate of 5-bromo-6-(2-imidozolin-2-ylamino) quinoxaline [Brimonidine tartrate],Solubility of Brimonidine tartrate,"[1]; pH 6.68, equilibrated fifteen days at room temperature (~21° C.)",1.4256%
same,Solubility of Brimonidine tartrate,"[1]; pH 7.11, equilibrated fifteen days at room temperature (~21° C.)",0.2064%
same,Solubility of Brimonidine tartrate,"[1]; pH 7.68, equilibrated fifteen days at room temperature (~21° C.)",0.0786%
same,Solubility of Brimonidine tartrate,"[1]; pH 8.50, equilibrated fifteen days at room temperature (~21° C.)",0.0286%
same,Solubility of Brimonidine tartrate,"[1]; pH 10.09, equilibrated fifteen days at room temperature (~21° C.)",0.0218%
same,soluble Brimonidine tartrate (FIG. 1),"[1]; pH 7.5, 0% CMC",1000 ppm
same,soluble Brimonidine tartrate (FIG. 1),"[1]; pH 7.5, 0.056% CMC",1300 ppm
same,soluble Brimonidine tartrate (FIG. 1),"[1]; pH 7.5, 0.17% CMC",1300 ppm
same,soluble Brimonidine tartrate (FIG. 1),"[1]; pH 7.5, 0.5% CMC",1600 ppm
same,soluble Brimonidine tartrate (FIG. 1),"[1]; pH 7.5, 1.5% CMC",about 1400 ppm
same,formation of dimers,[2],a portion of the Brimonidine tartrate monomer units conjugated to form dimers
same,Solubility,"[3]; Study 1, pH 5.55, Ophthalmic Solution vehicle, theoretical concentration based on sample weight, solution clear",≧164.4^b % w/v
same,Solubility,"[3]; Study 1, pH 5.92, Ophthalmic Solution vehicle",132.6 % w/v
same,Solubility,"[3]; Study 1, pH 6.14, Ophthalmic Solution vehicle",30.4 % w/v
same,Solubility,"[3]; Study 1, pH 6.57, Ophthalmic Solution vehicle",7.55 % w/v
same,Solubility,"[3]; Study 1, pH 7.00, Ophthalmic Solution vehicle",2.69 % w/v
same,Solubility,"[3]; Study 1, pH 7.45, Ophthalmic Solution vehicle",1.17 % w/v
same,Solubility,"[3]; Study 1, pH 7.83, Ophthalmic Solution vehicle",0.62 % w/v
same,Solubility,"[3]; Study 2, pH 5.50, Ophthalmic Solution vehicle, theoretical concentration based on sample weight, solution clear",≧200.6^b % w/v
same,Solubility,"[3]; Study 2, pH 5.92, Ophthalmic Solution vehicle",160.8 % w/v
same,Solubility,"[3]; Study 2, pH 6.06, Ophthalmic Solution vehicle",50.1 % w/v
same,Solubility,"[3]; Study 2, pH 6.90, Ophthalmic Solution vehicle",3.19 % w/v
same,Solubility,"[3]; Study 2, pH 7.40, Ophthalmic Solution vehicle",1.19 % w/v
same,Solubility,"[3]; Study 2, pH 7.77, Ophthalmic Solution vehicle",0.63 % w/v
same,Solubility,"[3]; Study 2, pH 7.86, Ophthalmic Solution vehicle",0.58 % w/v
same,Solubility,"[3]; Study 2, pH 7.88, Ophthalmic Solution vehicle",0.54 % w/v
same,pH dependence of solubility,"[3]; formulation vehicles, pH range of 5-8",highly pH-dependent
